In assay [1] the target is GSK3β (Glycogen synthase kinase-3 beta) (Homo sapiens, UniProt P49841). Description: Assay 6 GSK3β assay (ThermoFisher Z-Lyte FRET). The following applies: ATP Conc: 10 μM, geometric mean; read-out: Assay 6 (GSK3β FRET-Z-Lyte Cr) GMean IC50. It counts as biochemical. The method in brief: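 Z-Lyte FRET: 0.22-0.92 ng kinase with 2 μM Ser/Thr 09 peptide in HEPES pH 7.5, MgCl2, EGTA, 60 min at room temperature, then 60 min development. Compounds in 1% DMSO, 10-point 3-fold series from 10 μM; sigmoidal dose-response fit.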
GSK3β (Glycogen synthase kinase-3 beta), sequence (P49841 whole entry): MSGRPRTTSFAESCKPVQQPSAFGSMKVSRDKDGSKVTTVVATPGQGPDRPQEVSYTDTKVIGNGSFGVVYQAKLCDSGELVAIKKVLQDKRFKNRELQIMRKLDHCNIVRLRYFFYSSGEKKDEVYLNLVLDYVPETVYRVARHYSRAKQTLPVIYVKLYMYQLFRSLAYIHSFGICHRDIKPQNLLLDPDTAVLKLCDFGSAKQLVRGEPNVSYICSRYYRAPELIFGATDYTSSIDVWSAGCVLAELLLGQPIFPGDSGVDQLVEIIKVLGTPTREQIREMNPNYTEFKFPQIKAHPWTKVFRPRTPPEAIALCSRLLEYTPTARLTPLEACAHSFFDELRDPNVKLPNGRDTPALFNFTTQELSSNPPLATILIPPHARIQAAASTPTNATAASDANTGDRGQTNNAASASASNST

Assay [2] deals with T1, PCSK9 (Homo sapiens, UniProt Q8NBP7, G670E/V474I). Description: Assay 3 PCSK9 LDL-C uptake assay in HepG2 cells. It counts as cell-based. The following applies: 125 nM PCSK9, pHrodo Red-LDL, read-out: Assay 3 LDL uptake potency. Further details: TEV site (C); His6 (C); host or cells: added to HepG2 (ATCC #HB-8065). From the text: This assay measures for PCSK9 antagonist activity based on a test compound's capacity to restore LDL-C-uptake in HepG2 cells. The assay is based on exogenous PCSK9 and LDL-C complexed with a pH-sensitive dye. Outside the cells, at neutral pH, the pHrodo Red-LDL is dimly fluorescent but upon LDLR mediated endocytosis it fluoresces brightly. PCSK9 traffics the LDLR to intracellular degradation and reduces uptake of LDL-C. Inhibition of PCSK9 reduces LDLR degradation and the increased LDL-C uptake is quantified by fluorescence microscopy.
T1 sequence (Q8NBP7 with tags, fused parts or gaps V474I/G670E): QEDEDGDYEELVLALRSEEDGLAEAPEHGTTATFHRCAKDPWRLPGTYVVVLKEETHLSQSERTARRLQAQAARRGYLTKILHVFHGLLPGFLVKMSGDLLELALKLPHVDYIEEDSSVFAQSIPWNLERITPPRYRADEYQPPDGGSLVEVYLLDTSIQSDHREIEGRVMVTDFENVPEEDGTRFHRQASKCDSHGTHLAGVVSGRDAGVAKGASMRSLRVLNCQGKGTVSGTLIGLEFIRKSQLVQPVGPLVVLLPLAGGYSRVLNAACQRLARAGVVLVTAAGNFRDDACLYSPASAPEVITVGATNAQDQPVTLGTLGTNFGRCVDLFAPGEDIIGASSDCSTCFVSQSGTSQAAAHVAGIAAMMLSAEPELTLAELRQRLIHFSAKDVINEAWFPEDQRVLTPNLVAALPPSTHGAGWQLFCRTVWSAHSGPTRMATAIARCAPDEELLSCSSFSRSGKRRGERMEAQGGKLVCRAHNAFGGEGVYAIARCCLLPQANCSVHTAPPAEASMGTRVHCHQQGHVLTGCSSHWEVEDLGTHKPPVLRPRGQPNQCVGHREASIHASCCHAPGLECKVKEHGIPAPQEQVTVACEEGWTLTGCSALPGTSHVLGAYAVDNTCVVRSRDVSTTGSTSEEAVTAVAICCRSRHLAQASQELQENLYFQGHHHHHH
• Cell medium: MEM supplemented with 10% FBS, 1×NEAA and Sodium Pyruvate • Assay medium: OptiMem supplemented with penicillin/streptomycin • Cells: HepG2 (ATCC #HB-8065)
• 1. Cryopreserved HepG2 cells were thawed in assay medium and centrifuged for 5 min at 250 g. Supernatant was discarded and the cell pellet resuspended in cell medium and counted with a Nucleocounter. Cells were again centrifuged 5 min at 250 g and the pellet was resuspended to 500000 cells/mL in assay medium. • 2. 20 μL of above cell mix was dispensed into black μclear TC treated 384 well plates with Multidrop Combi and left at room temperature for 20 minutes. • 3. Plates were incubated at 37° C., 5% CO2 for 24 h
• 1. Test compounds were prepared in concentration response in DMSO with a half-log dilution factor in DMSO in Echo 384 LDV plates starting at 10 mM. • 2. 30 nL of above test compounds were dispensed with Echo 655 to cells for a top concentration of 10 μM • 3. 10 μL PCSK9 in assay medium was dispensed to cells with Multidrop Combi for 125 nM final concentration in the wells. • 4. Plates were incubated at 37° C., 5% CO2 for 24 h
• 1. 10 μL pHrodo Red-LDL in assay medium was dispensed to cells with Multidrop Combi for […] • 2. Plates were incubated at 37° C., 5% CO2 and imaged with the Incucyte S3 after 4 h and 24 h
Image data was processed using Incucyte 2021, a software to identify cells and red fluorescent intensity. Screener was used to further process data. Data was normalized as % effect of the signal between median values of the on-plate controls of DMSO and 100 nM Evolocumab according to the formula % effect=−100*(x−DMSO)/(Evolocumab−DMSO) where x equals the measured signal. Concentration response data of the normalized values were fitted using a four-parameter logistic fit.

Assay [3] concerns the target T1, PCSK9. Description: biochemical.
Assay [4] concerns the target T2, potassium ion channel hERG (Homo sapiens, UniProt Q12809).
T2 construct: expressed in transfected cells; host or cells: Chinese hamster ovary K1 (CHO)
In words: Assay 5 hERG assay (patch clamp, CHO cells over-expressing hERG). Type of assay: cell-based. The note with it: SyncroPatch 384PE, room temperature, geometric mean, read-out: Assay 5 (hERG Hu CHO if EPh CR-Syncro) GMean IC50. The method in brief: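 hERG currents recorded by automated patch clamp at room temperature in CHO-K1 cells, 6-point cumulative concentrations. SyncroPatch runs used KF-based internal (pH 7.2) and NMDG-containing external solution (pH 7.4), 0.33% DMSO; QPatchII runs used 2% or 0.4% DMSO. Only wells meeting seal-resistance and current-size criteria kept.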
A general note: Block of hERG is tested as a sign of cardiac risk.

Molecules are shown by their SMILES.

T2 sequence (Q12809 whole entry): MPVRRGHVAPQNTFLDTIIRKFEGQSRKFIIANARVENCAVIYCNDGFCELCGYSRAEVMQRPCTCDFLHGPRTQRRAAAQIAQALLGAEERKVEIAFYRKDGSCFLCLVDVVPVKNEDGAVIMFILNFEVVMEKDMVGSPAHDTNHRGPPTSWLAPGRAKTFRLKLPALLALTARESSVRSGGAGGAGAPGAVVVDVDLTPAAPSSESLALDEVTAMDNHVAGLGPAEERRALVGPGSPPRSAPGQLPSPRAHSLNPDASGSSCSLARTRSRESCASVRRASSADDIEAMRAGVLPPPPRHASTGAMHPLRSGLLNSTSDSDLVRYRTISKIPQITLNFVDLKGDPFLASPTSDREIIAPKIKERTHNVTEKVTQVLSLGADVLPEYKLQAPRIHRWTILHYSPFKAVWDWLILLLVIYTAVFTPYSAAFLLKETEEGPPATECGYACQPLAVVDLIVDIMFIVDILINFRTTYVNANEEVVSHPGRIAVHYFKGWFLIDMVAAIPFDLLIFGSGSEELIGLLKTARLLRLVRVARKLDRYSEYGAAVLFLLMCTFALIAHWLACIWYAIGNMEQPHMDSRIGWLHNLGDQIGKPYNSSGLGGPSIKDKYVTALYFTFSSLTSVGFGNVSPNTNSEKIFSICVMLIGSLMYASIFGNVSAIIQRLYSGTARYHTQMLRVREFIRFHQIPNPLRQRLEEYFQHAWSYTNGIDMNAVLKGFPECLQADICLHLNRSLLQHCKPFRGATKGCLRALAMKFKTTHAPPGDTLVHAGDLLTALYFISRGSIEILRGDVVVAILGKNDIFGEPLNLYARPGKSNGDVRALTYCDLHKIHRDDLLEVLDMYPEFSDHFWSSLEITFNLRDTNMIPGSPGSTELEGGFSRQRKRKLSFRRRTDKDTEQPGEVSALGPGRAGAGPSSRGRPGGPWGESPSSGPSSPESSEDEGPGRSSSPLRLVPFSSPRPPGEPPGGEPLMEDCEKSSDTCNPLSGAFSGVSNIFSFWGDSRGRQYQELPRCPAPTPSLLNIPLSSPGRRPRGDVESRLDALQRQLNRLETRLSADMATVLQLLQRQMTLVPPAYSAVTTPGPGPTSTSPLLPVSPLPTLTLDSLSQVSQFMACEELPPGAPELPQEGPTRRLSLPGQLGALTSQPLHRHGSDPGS

The IC50 is the concentration that inhibits the measured activity by half. In the case of `O=C(NC1COC1)c1cnc(N[C@H]2CC[C@H](Nc3ccc(-n4cccc(C(F)(F)F)c4=O)cn3)C2)nn1` [Example 161, N-(Oxetan-3-yl)-3-(((1S,3S)-3-((2-oxo-3-(trifluoromethyl)-2H-[1,3′-bipyridin]-6′-yl)amino)cyclopentyl)amino)-1,2,4-triazine-6-carboxamide], the IC50 in assay [1] is > 10000 nM; on PCSK9 [3] it was 3.8 nM; in assay [4] it was > 40100 nM. The EC50 at PCSK9 [2] worked out at 100 nM.

With `Cc1cnc(N[C@H]2CC[C@H](Nc3ccc(-n4c(=O)n(C)c5cc(C#N)ccc54)cn3)C2)nn1` [Example 211, 3-Methyl-1-(6-(((1S,3S)-3-((6-methyl-1,2,4-triazin-3-yl)amino)cyclopentyl)amino)pyridin-3-yl)-2-oxo-2,3-dihydro-1H-benzo[d]imidazole-5-carbonitrile], the values for the IC50 (in assay [1]; against PCSK9 [3]; in assay [4]) were > 10000 nM, 1.4 nM and 16500 nM, respectively. On PCSK9 [2], the EC50 stood at 100 nM.

In the case of `Cc1cnc(N[C@H]2CC[C@H](Nc3ccc(-n4cc(OC(F)F)ccc4=O)cn3)C2)nn1` [Example 185, 5-(Difluoromethoxy)-6′-(((1S,3S)-3-((6-methyl-1,2,4-triazin-3-yl)amino)cyclopentyl)amino)-2H-[1,3′-bipyridin]-2-one], the IC50 in assay [1] is 2420 nM; against PCSK9 [3], 13 nM; in assay [4] it was > 40100 nM. For the same compound, the EC50 at PCSK9 [2] amounted to 200 nM.

For `N#Cc1cccn(-c2ccc(N[C@H]3CC[C@H](Nc4ncc(C(=O)NC5COC5)nn4)C3)nc2)c1=O` [Example 159, 3-(((1S,3S)-3-((3-Cyano-2-oxo-2H-[1,3′-bipyridin]-6′-yl)amino)cyclopentyl)amino)-N-(oxetan-3-yl)-1,2,4-triazine-6-carboxamide], the IC50 in assay [1] was > 10000 nM; on PCSK9 [3], 4.1 nM; in assay [4] it was > 40100 nM. The EC50 at PCSK9 [2] was 100 nM.

Regarding `Cc1ccc(=O)n(-c2ccc(N[C@H]3CC[C@H](Nc4ncc(C)nn4)C3)nc2)c1` [Example 130, 5-Methyl-6′-(((1S,3S)-3-((6-methyl-1,2,4-triazin-3-yl)amino)cyclopentyl)amino)-2H-[1,3′-bipyridin]-2-one], the figures for the IC50 (in assay [1]; on PCSK9 [3]; in assay [4]) were 5700 nM, 14 nM and > 40100 nM, respectively. Further, the EC50 on PCSK9 [2] stood at 200 nM.

With `O=c1ccc(OC(F)F)cn1-c1ccc(N[C@H]2CC[C@H](Nc3ncc(C4CC4)nn3)C2)nc1` [Example 166, 6′-(((1S,3S)-3-((6-Cyclopropyl-1,2,4-triazin-3-yl)amino)cyclopentyl)amino)-5-(difluoromethoxy)-2H-[1,3′-bipyridin]-2-one], the values for the 50% inhibitory concentration (IC50) (in assay [1]; at PCSK9 [3]; in assay [4]) were 2200 nM, 7.2 nM and 38200 nM, respectively. At PCSK9 [2], the EC50 turned out to be 300 nM.

As for `O=c1c(OC(F)F)cccn1-c1ccc(N[C@H]2CC[C@H](Nc3ncc(C4CC4)nn3)C2)nc1` [Example 165, 6′-(((1S,3S)-3-((6-Cyclopropyl-1,2,4-triazin-3-yl)amino)cyclopentyl)amino)-3-(difluoromethoxy)-2H-[1,3′-bipyridin]-2-one], the IC50 worked out at 5100 nM in assay [1], 1.3 nM against PCSK9 [3] and 25500 nM in assay [4]. In addition, the EC50 on PCSK9 [2] was determined as 100 nM.

Regarding `Cc1cnc(N[C@H]2CC[C@H](Nc3ccc(-n4ccc(Cl)cc4=O)cn3)C2)nn1` [Example 182, 4-Chloro-6′-(((1S,3S)-3-((6-methyl-1,2,4-triazin-3-yl)amino)cyclopentyl)amino)-2H-[1,3′-bipyridin]-2-one], the half-maximal inhibitory concentration (IC50) in assay [1] is > 10000 nM; at PCSK9 [3], 9.4 nM; in assay [4] it was > 40100 nM. Further, the EC50 on PCSK9 [2] was found to be 600 nM.

Turning to `COc1ccc(=O)n(-c2ccc(N[C@H]3CC[C@H](Nc4ncc(C(=O)NC5COC5)nn4)C3)nc2)c1` [Example 154, 3-(((1S,3S)-3-((5-Methoxy-2-oxo-2H-[1,3′-bipyridin]-6′-yl)amino)cyclopentyl)amino)-N-(oxetan-3-yl)-1,2,4-triazine-6-carboxamide], the IC50 in assay [1] is 3900 nM; at PCSK9 [3] it was 14 nM; in assay [4] it was > 40100 nM. In addition, the EC50 at PCSK9 [2] stood at 200 nM.

In the case of `COc1ccnn(-c2ccc(N[C@H]3CC[C@H](Nc4ncc(C)nn4)C3)nc2)c1=O` [Example 220, 4-Methoxy-2-(6-(((1S,3S)-3-((6-methyl-1,2,4-triazin-3-yl)amino)cyclopentyl)amino)pyridin-3-yl)pyridazin-3(2H)-one], the IC50 in assay [1] is > 10000 nM; against PCSK9 [3] it was 1.7 nM; in assay [4] it was > 200000 nM. Further, the EC50 on PCSK9 [2] amounted to 200 nM.

Regarding `Cn1c(=O)n(-c2ccc(N[C@H]3CC[C@H](Nc4ncc(C5CC5)nn4)C3)nc2)c2cc(P(C)(C)=O)ccc21` [Example 125, 3-(6-(((1S,3S)-3-((6-Cyclopropyl-1,2,4-triazin-3-yl)amino)cyclopentyl)amino)pyridin-3-yl)-5-(dimethylphosphoryl)-1-methyl-1,3-dihydro-2H-benzo[d]imidazol-2-one], the IC50 in assay [1] is > 10000 nM; against PCSK9 [3] it was 2.7 nM; in assay [4], > 40100 nM. Besides, the EC50 on PCSK9 [2] was 100 nM.

As to `COc1cccn(-c2ccc(N[C@H]3CC[C@H](Nc4ncc(C(=O)NC5COC5)nn4)C3)nc2)c1=O` [Example 153, 3-(((1S,3S)-3-((3-Methoxy-2-oxo-2H-[1,3′-bipyridin]-6′-yl)amino)cyclopentyl)amino)-N-(oxetan-3-yl)-1,2,4-triazine-6-carboxamide], the half-maximal inhibitory concentration (IC50) in assay [1] was > 10000 nM; against PCSK9 [3], 3.3 nM; in assay [4] it was > 40100 nM. Further, on PCSK9 [2], the EC50 is 100 nM.

Turning to `Cc1cnc(N[C@H]2CC[C@H](Nc3ccc(-n4cc(-c5cnn(C)c5)ccc4=O)cn3)C2)nn1` [Example 201, 6′-(((1S,3S)-3-((6-Methyl-1,2,4-triazin-3-yl)amino)cyclopentyl)amino)-5-(1-methyl-1H-pyrazol-4-yl)-2H-[1,3′-bipyridin]-2-one], the values for the IC50 (in assay [1]; against PCSK9 [3]; in assay [4]) were 2380 nM, 8.6 nM and > 40100 nM, respectively. For the same compound, the EC50 at PCSK9 [2] is 200 nM.

For the compound `O=c1ccc(-c2c[nH]nn2)cn1-c1ccc(N[C@H]2CC[C@H](Nc3ncc(C4CC4)nn3)C2)nc1` [Example 122, 6′-(((1S,3S)-3-((6-Cyclopropyl-1,2,4-triazin-3-yl)amino)cyclopentyl)amino)-5-(1H-1,2,3-triazol-4-yl)-2H-[1,3′-bipyridin]-2-one], the values for the IC50 (in assay [1]; at PCSK9 [3]; in assay [4]) were 6170 nM, 1.4 nM and > 40100 nM, respectively. Moreover, the EC50 at PCSK9 [2] amounted to 100 nM.

`O=c1ccc(-c2cn[nH]c2)cn1-c1ccc(N[C@H]2CC[C@H](Nc3ncc(C4CC4)nn3)C2)nc1` [Example 123, 6′-(((1S,3S)-3-((6-Cyclopropyl-1,2,4-triazin-3-yl)amino)cyclopentyl)amino)-5-(1H-pyrazol-4-yl)-2H-[1,3′-bipyridin]-2-one]: the IC50 is 8840 nM in assay [1], 1.4 nM at PCSK9 [3] and > 40100 nM in assay [4]. Also, the EC50 on PCSK9 [2] came to 100 nM.

Consider `Cc1cnc(N[C@H]2CC[C@H](Nc3ccc(-n4cccc(OC(F)(F)F)c4=O)cn3)C2)nn1` [Example 138, 6′-(((1S,3S)-3-((6-Methyl-1,2,4-triazin-3-yl)amino)cyclopentyl)amino)-3-(trifluoromethoxy)-2H-[1,3′-bipyridin]-2-one], for which the half-maximal inhibitory concentration (IC50) is > 10000 nM in assay [1], 4 nM on PCSK9 [3] and > 40100 nM in assay [4]. The EC50 on PCSK9 [2] was 200 nM.

Values taken from patent US20240228469A1, “PCSK9 INHIBITORS AND METHODS OF USE THEREOF” (AstraZeneca AB, priority 2022, published 2024).
